According to US9090645B2, “Therapeutic compositions and methods of treatment with capsianoside-type compounds” (BMB Patent Holding Corporation, priority 2006, dated 2015):
Where “and” joins values, the source holds several entries; their conditions need not be identical. Equal entries are not always repeated.

How the values were obtained:
[1] = test system: capsaicin-treated hindpaw; test: Analgesic Bioassay: rat hindpaw withdrawal latency assay; assay type: in vivo, Sprague-Dawley rats; settings: for Avg. Cmpd. @ 5 min (hindpaw withdrawal latency): 5 min after compound on capsaicin-treated hindpaw; for Avg. Cmpd. @ 5 min (hindpaw withdrawal latency) / Avg. Cmpd. @ 20 min (hindpaw withdrawal latency) / Avg. Cmpd @ 30 min (hindpaw withdrawal latency): 498: 0.27 mg, 660: 0.33 mg; for Avg. Cmpd. @ 5 min (hindpaw withdrawal latency) / Avg. Cmpd. @ 20 min (hindpaw withdrawal latency) / Avg. Cmpd @ 30 min (hindpaw withdrawal latency) / Avg. Cap. @ 20 min (hindpaw withdrawal latency) / Avg. Cap. @ 25 min (hindpaw withdrawal latency) / Avg. Cap. @ 30 min (hindpaw withdrawal latency) / Avg. All Capsaicin (hindpaw withdrawal latency) / Avg. All Baselines (hindpaw withdrawal latency): n=5; for Avg. Cmpd. @ 20 min (hindpaw withdrawal latency): 20 min after compound on capsaicin-treated hindpaw; for Avg. Cmpd @ 30 min (hindpaw withdrawal latency): 30 min after compound on capsaicin-treated hindpaw; for Avg. Cap. @ 20 min (hindpaw withdrawal latency) / Avg. Cap. @ 25 min (hindpaw withdrawal latency) / Avg. Cap. @ 30 min (hindpaw withdrawal latency) / Avg. All Capsaicin (hindpaw withdrawal latency) / Avg. All Baselines (hindpaw withdrawal latency): Table 7; for Avg. Cap. @ 20 min (hindpaw withdrawal latency): 20 min post-capsaicin; for Avg. Cap. @ 20 min (hindpaw withdrawal latency) / Avg. Cap. @ 25 min (hindpaw withdrawal latency) / Avg. Cap. @ 30 min (hindpaw withdrawal latency) / Avg. All Capsaicin (hindpaw withdrawal latency): before compound; for Avg. Cap. @ 25 min (hindpaw withdrawal latency): 25 min post-capsaicin; for Avg. Cap. @ 30 min (hindpaw withdrawal latency): 30 min post-capsaicin; for Avg. All Capsaicin (hindpaw withdrawal latency): all post-capsaicin times; for Avg. All Baselines (hindpaw withdrawal latency): before any treatment
Description: A rat hindpaw assay was used to determine the therapeutic effectiveness of various extracts/compounds as analgesics in the present invention.
Sprague-Dawley rats (225-250 g, male) were anesthetized with urethane and placed on their sides on a disposable Chux pad. Both hindpaws for each rat were blackened with India ink which was allowed to dry for 10 minutes. An ELH projector lamp calibrated to a standard mW/cm^2 was used as a pain stimulus and was condensed into an area of 5×15 mm on each hindpaw and placed perpendicular to, and 72 mm from, each hindpaw.
Multiple baseline hindpaw withdrawal latency times were recorded (in seconds) for each medial and each lateral surface of each hindpaw. Subsequently, 100 μl of 1 μmolar capsaicin was applied with a pipette to cover one hindpaw of each animal and allowed to dry for 10 minutes, rendering the capsaicin-treated hindpaw hypersensitive to pain stimulus relative to the non-capsaicin treated hindpaw (and thereby decreasing the withdrawal latency period for the capsaicin-treated hindpaw relative to the non-treated hindpaw).
Both hindpaws were then re-blackened with India ink which was allowed to dry for 10 minutes, and hindpaw withdrawal latencies were recorded for both the capsaicin-treated and untreated hindpaws on both the medial and lateral aspects of both hindpaws at 20, 25 and 30 minutes. […] By contrast, only minor drops in the withdrawal latency periods of the untreated hindpaws was seen, and the effect that was observed is believed to be due to the central mechanism effect of capsaicin-treatment on the other hindpaw.
To determine the analgesic properties of each fraction, 100 μl of each fraction were applied to the capsaicin-treated hindpaw by pipette and permitted to dry (the untreated hindpaw was not treated with the fraction). Hindpaw withdrawal latencies were then recorded at 5, 20 and 30 minutes for both the capsaicin/fraction-treated hindpaw and the untreated hindpaw. An increase in the hindpaw withdrawal time was indicative of an analgesic effect by the applied fraction.

[2] = test system: carrageenan-induced inflammation in air pouch; test: Inflammation Bioassay: mouse air pouch assay (carrageenan), white blood cells in exudates; assay type: in vivo, mice
Description: A mouse air pouch assay was used to determine the therapeutic effectiveness of various extracts/compounds as anti-inflammatory agents in the present invention.
To induce air pouches, 10-15 week old mice were injected subcutaneously on the back with 3 ml of air.
On day 2, the pouches were reinflated with 1.5 m. of air.
On day 6, inflammation was induced by injecting 1 ml of a suspension of carrageenan (2% weight/volume in calcium-free and magnesium-free phosphate buffered saline (PBS) solution) into the air pouch.
100 μL of solution including test compounds were injected with the carrageenan (additional 100 μL of PBS were injected into the controls).
After 4 hours, the mice were sacrificed by including CO2 narcosis, the pouches were flushed with 2 ml of PBS, and exudates were harvested.
Exudates were diluted 1:1 with 0.015% methylene blue in PBS.
White blood cells were counted in a standard hemocytometer chamber (American Optical, Buffalo, N.Y.).

[3] = individual mice, 100 μL test solution injected with carrageenan, 4 hours

SMILES	Avg. Cmpd. @ 5 min (hindpaw withdrawal latency) [1] [s]	Avg. Cmpd. @ 20 min (hindpaw withdrawal latency) [1] [s]	Avg. Cmpd @ 30 min (hindpaw withdrawal latency) [1] [s]	Avg. Cap. @ 20 min (hindpaw withdrawal latency) [1] [s]	Avg. Cap. @ 25 min (hindpaw withdrawal latency) [1] [s]	Avg. Cap. @ 30 min (hindpaw withdrawal latency) [1] [s]	Avg. All Capsaicin (hindpaw withdrawal latency) [1] [s]	Avg. All Baselines (hindpaw withdrawal latency) [1] [s]	Average Cells (10^6/ml) (white blood cells in exudate) ([2]; average of five mice, control mice (PBS) 2.67)	Cells (10^6/ml) (white blood cells in exudate) [2, 3]	Cells/ml (white blood cells in exudate) [2, 3]	anti-inflammatory effects compared with methotrexate and dexamethasone ([2]; mouse air pouch)	analgesic activity (in words) ([1]; Analgesic Bioassay (Example 1))
C=C[C@](C)(CC/C=C(\C)CC/C=C(\C)CC(O)/C=C(\C)C(=O)O)O[C@@H]1OC(CO)[C@@H](O)C(O)C1O[C@@H]1OC(CO)[C@@H](O)C(O)C1O (stereo partly drawn) [Compound 660, capsianoside I]	10.5	9.6	6.5	9.5	6.4	5.9	7.3	9.5	1.54 10^6/ml	1.30 10^6/ml and 2.49 10^6/ml (2×) and 0.32 10^6/ml and 1.09 10^6/ml	1.30E+06 Cells/ml and 2.49E+06 Cells/ml (2×) and 3.23E+05 Cells/ml and 1.09E+06 Cells/ml	comparable to 0.5-1.0 mg/kg/week of chronic methotrexate, or 1.5 mg/kg acute dose of dexamethasone	–
C=C[C@](C)(CC/C=C(\C)CC/C=C(\C)CC(O)/C=C(\C)C(=O)O)O[C@@H]1OC(CO)[C@@H](O)C(O)C1O (relative stereo) [Compound 498, 14-(beta-D-glucopyranosyloxy)-4-hydroxy-2,6,10,14-tetramethyl-2,6,10,15-hexadecatetraenoic acid [4R-(2E,4R*,6E,10E,14S*)]]	13.6	9.4	8.1	7.4	7.956	5.4	6.9	10.77	–	–	–	–	strong analgesic effect
